Read-outs that look alike come from different tables or passages of the source.
Experiments:
[1] = Parallel artificial membrane permeability assay; format: in vitro ADME; parameters: key to Papp Interpretation: High rate of apparent passive permeability (>1 × 10^−6 cm/s); Low rate of apparent passive permeability (<1 × 10^−6 cm/s); INS: Compound was insoluble in 100% DMSO; settings: for Papp Interpretation: pH 7.4; for Papp: pH 7.4, 200 μM; for Papp / Papp at 2 h, 200 µM: 2 h, room temperature; for Papp interpretation (high/low permeability category) at 2 h, 200 µM / Papp at 2 h, 200 µM: PAMPA; for Papp interpretation (high/low permeability category) at 2 h, 200 µM: pH 7.4, pH 7.4; for Papp at 2 h, 200 µM: pH 7.4, pH 7.4, 200 μM
Protocol: Apparent passive permeability (Papp) was assessed at pH 7.4 using a 96-well donor/acceptor cassette (Sigma Aldrich, Burlington, MA, USA), which mimics the apical and basolateral sides of the small intestine epithelium, as we have described previously. Briefly, an artificial membrane composed of 1% w/v lethicin/dodecane was added to the poly (vinylidene fluoride) (PVDF) membrane filter. Once dry, compounds (200 μM) were diluted in buffer at pH 7.4 and added to the donor side of the membrane, and the same pH buffer was added to the acceptor side. The cassette was assembled and incubated at room temperature with shaking at 250 rpm for 2 h, after which 100 μL of the acceptor well was retrieved and the experimental compound absorbance was read on a plate reader between 200 and 600 nm. Compound Papps (cm/s) values were determined by normalizing to the compound absorbance at equilibrium, incubation time, and membrane porosity Two or more replicate assays were conducted on different days.

[2] = Solubility limit assay (turbidity, DMEM-F12 + 10% FBS); format: physicochemical; settings: pH 7.4, DMEM-F12 with 10% FBS, 1% DMSO, upper limit 200 µM
Protocol: Compound solubility limits were tested in DMEM-F12 without phenol red (Gibco, Grand Island, NY, USA) supplemented with 10% FBS (pH 7.2–7.4) to mimic cell culture experiments, as we have performed previously. Compounds were serially diluted in buffer at pH 7.4 in 384-well, optically clear plates (upper limit 200 µM, DMSO 1%) and read on a plate reader at 620 nm. Compound concentration (µM) was plotted against optical density (OD) and a solubility limit was determined by identifying an inflection point where there was a significant increase in optical density due to increasing turbidity; the concentration of the compound at the inflection point was defined as the solubility limit. Two or more replicate assays were performed on different days for each compound.

MTS cytotoxicity assay = format: cell-based; settings: human, HepDES19 cells
Protocol: (§1) HepDES19 cells were incubated on collagen-coated plates at 37 °C with 5% CO2 and saturating humidity in Dulbecco’s modified Eagle’s medium (DMEM/F12) (Cytiva Life Sciences, Marlborough, MA, USA) supplemented with 10% fetal bovine serum (FBS), penicillin (100 IU/mL), and streptomycin (100 µg/mL). HepDES19 cells are HepG2 cells that carry a stably transfected HBV genotype D genome under the control of a tetracycline repressible promoter. Cells were maintained in the presence of 1 µg/mL tetracycline to repress the expression of the stably integrated HBV genome, and HBV replication was induced by the withdrawal of tetracycline from the culture medium.
Cell viability was assessed using the CellTiter 96^TM Aqueous Non-Radioactive Cell Proliferation assay (MTS) (Promega, Madison, WI, USA) as described previously. HepDES19 cells were seeded at 1 × 10^4 cells per well in 96-well, and compound was added after 48 h. Cells incubated with serially diluted compound (1% DMSO) for 72 h. Bac absorbance values were subtracted, and data were converted to percent cell viability. The cytotoxic concentration 50% (CC50) values were calculated with GraphPad Prism by using the four-parameter variable response log (inhibitor) versus response algorithm with the bottom value set to zero. Three or more replicate assays were performed on different days.

HBV replication = test: qPCR HBV replication inhibition assay in HepDES19 cells; format: cell-based, Hepatitis B virus (HBV) genotype D; settings: 72 h, (+) DNA qPCR
Protocol: as §1
HBV replication inhibition was measured in HepDES19 cells induced to replicate HBV by the removal of tetracycline using a strand-preferential quantitative PCR assay as previously described. Cells were seeded at 4 × 10^4 cells/well in 96-well plates for 48 h. Serially diluted compound was then added to cells at a final concentration of 1% DMSO for 72 h, after which the cells were lysed and qPCR was performed as described in Li et al.. EC50 values were calculated from the (+) DNA data with GraphPad Prism using the four-parameter log (inhibitor) versus response algorithm with the bottom value set to zero. Three or more replicate assays were performed on different days.

[3] = Hepatitis B virus, read-out: EC50
[4] = DMEM-F12 without phenol red with 10% FBS, plasma or biological fluid, kinetic from dmso stock

Row | Molecule | Papp Interpretation [1] | Papp [1] | solubility [2] | Papp interpretation (high/low permeability category) at 2 h, 200 µM [1] | Papp at 2 h, 200 µM [1] | CC50 at 72 h (MTS cytotoxicity assay) | EC50 (HBV replication; [3]) | solubility [2, 4] | melting point | EC50 (HBV replication) | Solubility Limit [2]
1 | 2,6-Diamino-4-(3-methoxyphenoxy)-1,6-dihydropyrimidine 1-oxide [Compound 55] | H (High rate of apparent passive permeability (>1 × 10^−6 cm/s)) | 6.17 ×10⁻⁶ cm/s | > 200 µM |  |  |  |  |  |  |  | 
2 | CSc1ccc(CON=C(C)c2c(C)cc(=O)n(O)c2O)cc1 [Compound 33, 1,6-Dihydroxy-4-methyl-5-(1-(((4(methylthio)benzyl)oxy)imino)ethyl)pyridin-2(1H)-one] |  |  |  | > 1 ×10⁻⁶ cm/s | 4.35 ×10⁻⁶ cm/s | 100 µM | 1.4 ± 0.7 µM | > 200 µM | 110 to 115 °C (dec.) |  | 
3 | COC(=O)c1ccc(C(C)ON=C(C)c2c(C)cc(=O)n(O)c2O)cc1 (centres unmarked) [Compound 34, Methyl-4-(1-(((1-(1,2-dihydroxy-4-methyl-6-oxo-1,6-dihydropyridin-3-yl)ethylidene)amino)oxy)ethyl)benzoate] |  |  |  | > 1 ×10⁻⁶ cm/s | 2.5 ×10⁻⁶ cm/s | 96 ± 5.7 µM | 6.3 ± 5.5 µM | 50 µM | 130 °C (dec.) |  | 
4 | COc1cccc(CON=C(C)c2c(C)cc(=O)n(O)c2O)c1 [Compound 35, 1,6-Dihydroxy-5-(1-(((3-methoxybenzyl)oxy)imino)ethyl)-4-methylpyridin-2(1H)-one] |  |  |  | > 1 ×10⁻⁶ cm/s | 6.19 ×10⁻⁶ cm/s | 90 ± 14.1 µM | 1.9 ± 1.2 µM | 117 µM | 120 to 122 °C (dec.) |  | 
5 | COC(=O)c1cc(Cl)c(CON=C(C)c2c(C)cc(=O)n(O)c2O)c(Cl)c1 [Compound 36, Methyl 3,5-dichloro-4-((((1-(1,2-dihydroxy-4-methyl-6-oxo-1,6-dihydropyridin-3-yl)ethylidene)amino)oxy)methyl)benzoate] |  |  |  | > 1 ×10⁻⁶ cm/s | 4.35 ×10⁻⁶ cm/s | 100 µM | 3.1 ± 0.4 µM | 163 µM | 117 to 119 °C (dec.) |  | 
6 | CC(=NOC(CNC(=O)c1ccco1)c1cc(F)cc(F)c1)c1c(C)cc(=O)n(O)c1O (centres unmarked) [Compound 37, N-(2-(3,5-Difluorophenyl)-2-(((1-(1,2-dihydroxy-4-methyl-6-oxo-1,6-dihydropyridin-3-yl)ethylidene)amino)oxy)ethyl)furan-2-carboxamide] |  |  |  | > 1 ×10⁻⁶ cm/s | 4.96 ×10⁻⁶ cm/s | 100 µM | 4.7 ± 3 µM | 175 µM | 118 to 120 °C (dec.) |  | 
7 | CC(=NOC(c1cc(F)cc(F)c1)c1ccccn1)c1c(C)cc(=O)n(O)c1O (centres unmarked) [Compound 38, 5-(1-(((3,5-Difluorophenyl)(pyridin-2-yl)methoxy)imino)ethyl)-1,6-dihydroxy-4-methylpyridin-2(1H)-one] |  |  |  | > 1 ×10⁻⁶ cm/s | 2.61 ×10⁻⁶ cm/s | 47.1 ± 21.7 µM | 2.3 ± 0.2 µM | 167 µM | 102 to 104 °C (dec.) |  | 
8 | CC(=NOCc1ccc(O)cc1)c1c(C)cc(=O)n(O)c1O [Compound 39, 1,6-Dihydroxy-5-(1-(((4-hydroxybenzyl)oxy)imino)ethyl)-4-methylpyridin-2(1H)-one] |  |  |  | > 1 ×10⁻⁶ cm/s | 5.21 ×10⁻⁶ cm/s | 91.1 ± 14.3 µM | 5.2 ± 0.9 µM | > 200 µM | 98 to 100 °C (dec.) |  | 
9 | C#CCCCON=C(C)c1c(C)cc(=O)n(O)c1O [Compound 40, 1,6-Dihydroxy-4-methyl-5-(1-((pent-4-yn-1-yloxy)imino)ethyl)pyridin-2(1H)-one] |  |  |  | > 1 ×10⁻⁶ cm/s | 3.36 ×10⁻⁶ cm/s | 53.6 ± 31.4 µM | 2.5 ± 0.6 µM | > 200 µM | 93 to 95 °C (dec.) |  | 
10 | C#CCCON=C(C)c1c(C)cc(=O)n(O)c1O [Compound 41, 5-(1-((But-3-yn-1-yloxy)imino)ethyl)-1,6-dihydroxy-4-methylpyridin-2(1H)-one] |  |  |  | > 1 ×10⁻⁶ cm/s | 2.24 ×10⁻⁶ cm/s | 57.5 ± 32.4 µM | 1.2 ± 0.2 µM | > 200 µM | 86 to 89 °C (dec.) |  | 
11 | C#CCON=C(C)c1c(C)cc(=O)n(O)c1O [Compound 42, 1,6-Dihydroxy-4-methyl-5-(1-((prop-2-yn-1-yloxy)imino)ethyl)pyridin-2(1H)-one] |  |  |  | > 1 ×10⁻⁶ cm/s | 3.74 ×10⁻⁶ cm/s | 81.7 ± 18.6 µM | 5.4 ± 2.2 µM | 167 µM | 78 to 80 °C (dec.) |  | 
12 | COC(=O)c1ccc(CON=C(C)c2c(C)cc(=O)n(O)c2O)c(C#N)c1 [Compound 44, 2′-Cyano-4′-((((1′-(1,2-dihydroxy-4-methyl-6-oxo-1,6-dihydropyridin-5-yl)ethylidene)amino)oxy)methyl)methyl benzoate] |  |  |  | > 1 ×10⁻⁶ cm/s | 5.42 ×10⁻⁶ cm/s | 91.9 ± 11.2 µM | 7.7 ± 1.4 µM | > 200 µM | 115 °C |  | 
13 | COC(=O)c1ccc(CON=C(C)c2c(C)cc(=O)n(O)c2O)c(F)c1 [Compound 45, Methyl 4-((((1-(1,2-dihydroxy-4-methyl-6-oxo-1,6-dihydropyridin-3-yl)ethylidene)amino)oxy)methyl)-3-fluorobenzoate] |  |  |  | > 1 ×10⁻⁶ cm/s | 3.54 ×10⁻⁶ cm/s | 90.2 ± 13.8 µM | 3.2 ± 0.4 µM | > 200 µM | 130 °C (dec.) |  | 
14 | Nc1cc(Oc2cc(Cl)c(Cl)cc2Cl)nc(N)[n+]1[O-] [Compound 56, 2,6-Diamino-4-(2′,4′,5′-trichloro)-1,6-dihydropyrimidine 1-oxide] |  |  |  | > 1 ×10⁻⁶ cm/s | 3.85 ×10⁻⁶ cm/s |  | > 100 µM | 167 µM | 135 °C |  | 
15 | Nc1cc(Oc2ccc(Cl)cc2Cl)nc(N)[n+]1[O-] [Compound 57, 2,6-Diamino-4-(2′,4′-dichloro)-1,6-dihydropyrimidine 1-oxide] |  |  |  | > 1 ×10⁻⁶ cm/s | 2.99 ×10⁻⁶ cm/s |  | > 100 µM | 100 µM | 160 °C |  | 
16 | COc1ccc(COc2cc(N)[n+]([O-])c(N)n2)cc1 [Compound 58, 2,6-Diamino-4-((4-methoxybenzyl)oxy)pyrimidine 1-oxide] |  |  |  | > 1 ×10⁻⁶ cm/s | 2.56 ×10⁻⁶ cm/s |  | > 100 µM | > 200 µM | > 250 °C |  | 
17 | COC(=O)c1ccc(CO/N=C(\C)C2C(=O)NC(=O)NC2=O)cc1 [Compound 59, Methyl 4′-((((1-(2,4,6-Trioxohexahydropyrimidin-5-yl)ethylidene)amino)oxy)methyl)benzoate] | INS | INS |  |  |  |  |  |  | > 250 °C | lacked any inhibitory activity | INS

Reference: paper PMC11206691, “N-Hydroxypiridinedione: A Privileged Heterocycle for Targeting the HBV RNase H” (Molecules, 2024)
